# Data reported in paper PMC7822874, “Chemoprotective antimalarials identified through quantitative high-throughput screening of Plasmodium blood and liver stage parasites” (Scientific Reports, 2021).
# Read-outs that look alike come from different tables or passages of the source.
# Experiments:
# [1] = system: P. falciparum Dd2 (clone B2) asexual blood stage parasites; assay: P. falciparum Dd2 asexual blood stage SYBR Green-I 72 h proliferation assay (qHTS); type: cell-based, Plasmodium falciparum; details: averaged P. falciparum asexual blood stage potency, log10 of AC50 in M
# [2] = system: P. berghei-ANKA-GFP-LucCON liver stage parasites in HepG2-A16-CD81EGFP cells; assay: P. berghei liver stage Pb-Luc assay, Method 1 (UCSD, 1536-well); type: cell-based, Plasmodium berghei; details: P. berghei liver stage, averaged response (percent); for Average P. berghei 1 µM response (%): the header list (r8) defines it as the 1 µM dose
# HepG2-A16-CD81EGFP cells = details: averaged response (percent)
# in vitro = details: human, hepg2-a16-cd81egfp cells, % viability
# [3] = HepG2, the header list (r10) describes it as the 1 µM dose
Structure (SMILES),Pf ABS Log AC50 (M) [1] [M],Average P. berghei 3 µM response( %) [2] [%],Average P. berghei 1 µM response (%) [2] [%],"Average HepG2 3 µM response( %) (HepG2-A16-CD81EGFP cells; HepG2, 3 µM dose) [%]",Average HepG2 3 µM response( %) (HepG2-A16-CD81EGFP cells; [3]) [%],viability at 3 µM (in vitro) [%]
Cc1cc(N2CCN(C3CCCC3)CC2)n2c(nc3ccccc32)c1C#N [MLS000039270],-6.262,94,106,90,89,89.8
Cl.Oc1ccc(C2NCc3ccccc3-n3cccc32)cc1Cl (centres unmarked) [MLS000047999],-5.962,90,101,94,100,94
N=c1c2c(n(Cc3ccc(F)cc3)c3c1CCC3)CCC2 [MLS000107591],-5.862,16,68,78,100,77.7
Cc1cc(Nc2ccc(C)c(C)c2)n2nc(C)nc2n1 [MLS000116616],-5.712,39,76,90,91,90.3
O=C(CCl)Nc1ccc(Oc2cnc3ccccc3n2)cc1 [MLS000327546],-5.812,121,109,91,88,90.9
Cc1nn(-c2ccccc2)c(C)c1/C=N/Nc1nc2ccccc2[nH]1 [MLS000332160],-6.012,43,83,87,92,87.3
O=C1C(Nc2ccccc2)=C/C(=N\S(=O)(=O)c2cccs2)c2ccccc21 [MLS000374486],-6.462,34,65,86,101,86
COc1ccc(-[n+]2c(-c3ccc(Br)cc3)cn3c2CCc2ccccc2-3)cc1.[Br-] [MLS000391920],-5.612,11,57,65,95,65.4
NS(=O)(=O)c1ccc(N/N=C/c2cn(-c3ccccc3)nc2-c2cccs2)cc1 [MLS000393371],-6.762,24,69,94,91,94.1
Cc1cccc(-c2cc3nc(C)c(C)c(NCCCn4ccnc4)n3n2)c1 [MLS000529525],-5.512,119,131,87,97,87.2
Cc1ccc(NC2=C(N3CCCCC3)C(=O)c3ccccc3C2=O)cc1 [MLS000532222],-6.600,14,71,77,99,76.9
CCN(CC)CCN1C(=O)c2ccccc2NC1c1ccc(N(C)C)cc1 (centres unmarked) [MLS000554078],-5.612,84,102,96,103,95.7
Cc1cc(Nc2cccc(C(F)(F)F)c2)nc2ccc(NC(=O)c3cncc(Br)c3)cc12 [NCGC00124348],-5.625,38,76,101,107,
Cc1ccccc1NC(=O)Nc1ccc2nc(N3CCN(C)CC3)cc(C)c2c1 [NCGC00126513],-5.825,104,110,106,104,
CCN(C(=O)CSc1nc(-c2ccc(C(C)C)cc2)no1)c1ccccc1 [NCGC00127904],-6.025,98,117,105,102,
CC1CCN(C(=O)CSc2nc(-c3ccc(C(C)C)cc3)no2)CC1 [NCGC00127906],-5.925,103,130,105,105,

Structure (SMILES),Pf ABS Log AC50 (M) [1] [M],Average P. berghei 3 µM response( %) [2] [%],Average P. berghei 1 µM response (%) [2] [%],"Average HepG2 3 µM response( %) (HepG2-A16-CD81EGFP cells; HepG2, 3 µM dose) [%]",Average HepG2 3 µM response( %) (HepG2-A16-CD81EGFP cells; [3]) [%],viability at 3 µM (in vitro) [%]
CCc1cccc(-n2c(=O)c3cccnc3n2CC(=O)Nc2ccc(F)c(C)c2)c1 [NCGC00128424],-5.575,91,110,103,107,
COc1ccc(-c2nc3sc(CCNC(=O)c4ccc(C(C)(C)C)cc4)c(C)n3n2)cc1 [NCGC00137079],-5.675,84,132,98,98,
Cc1ccc(O)c([C@H](CCN(C(C)C)C(C)C)c2ccccc2)c1 [NCGC00159519],-5.437,83,97,104,100,
CC(C)C(=O)OCC(=O)[C@@]12O[C@H](C3CCCCC3)O[C@@H]1C[C@H]1[C@@H]3CCC4=CC(=O)C=C[C@]4(C)[C@H]3[C@@H](O)C[C@@]12C [NCGC00167484],-5.762,125,137,92,94,
O=C(O)c1ccc(-c2nc3cnccc3[nH]2)cc1 [NCGC00375713],-5.264,94,106,104,105,
O=C1NCc2ccccc2CC12CCCN(Cc1ccccc1)C2 (centres unmarked) [NCGC00377595],-4.980,106,116,104,103,
COc1ccc2[nH]c(C[C@@H]3C[C@@H](C(C)C)[C@H](CNCc4ccccc4OC)C=C3C)nc2c1 [NCGC00392082],-5.025,47,75,97,99,
CCC(CC)c1cc([C@H]2CN3CC[C@H]2C[C@@H]3CNC(C)=O)nc(-c2ccncc2)n1 [NCGC00394634],-4.814,53,49,106,107,
Cn1ccc(NCc2nnc(C(=O)N3CCC[C@@H]3C(c3ccccc3)c3ccccc3)n2-c2ccccc2)n1 [NCGC00415774],-5.875,89,95,99,96,
COc1cc2c(cc1Oc1cccc(N(C)C)c1)NC(=O)C21CCN(c2cnccn2)CC1 [NCGC00416778],-5.825,43,96,89,98,
Cc1nn2c(c1-c1ccccc1-c1ccccc1)N(Cc1ccc(O)cc1)CCC2 [NCGC00420512],-6.314,24,80,111,98,
COc1ccc(N2CCN(c3cc(C4CC(N)C4)nc(N)n3)CC2(C)C)cc1 (centres unmarked) [NCGC00422579],-5.525,82,91,100,102,
COc1ccc(-c2noc(-c3cccn3CC(=O)Nc3ccccc3)n2)cc1F [NCGC00445500],-5.625,183,170,104,101,
O=C1CC(c2ccccc2)N(Cc2ccncc2)CCCN(C(=O)Nc2ccccc2F)CCN1 (centres unmarked) [NCGC00467191],-5.775,73,88,103,107,
CCOc1ccccc1CN1CCC2(CCN(CCC(C)C)CC2)Oc2ccccc21 [NCGC00478188],-5.475,48,106,105,100,
